Several values for one entry are separate records, joined by “and”; a condition that tells them apart may be missing. Equal entries are not always repeated.
Tested on: 282377-053-R-J1-PDC complex spheroid viability
Experiment: Anticancer human tumor 282377-053-R-J1-PDC patient-derived colon adenocarcinoma cell line growth inhibition [POLQ]
Details: for viability, T/C: stronger effect = lower value; for IC50: curve of compound
Procedure: Multicellular complex tumor spheroid response to Polymerase (POL) inhibitors (novobiocin, ART-558, RP6685) in combination with a variety of drugs and investigational agents in selected tumor cell lines
The POL inhibitors (novobiocin, ART-558, and RP6685) were evaluated both individually and in combination with standard of care and investigational anticancer small molecules within a complex spheroid model of solid tumors. . Complex spheroids include a stromal component modeled by human endothelial cells (HUVEC) and fibroblasts modeled by human mesenchymal stem cells (MSCs). The concentration ranges selected for each drug and investigational agent were based upon clinically achievable concentrations if the clinical Cmax of the agent was known.
Compounds. The drugs and investigational agents: novobiocin (NSC847541), ART-558 (NSC835418), RP-6685 (NSC848927), peposertib (NSC802822), ceralasertib (NSC780249), elimusertib (NSC800525), camonsertib (NSC841442), AZD-1390 (NSC803789), olaparib (NSC753686), talazoparib (NSC767125), rucaparib (NSC756644), sotorasib (NSC818433), MRTX-1133 (NSC836407), SN-38 (NSC673596), topotecan (NSC609699), epotoside (NSC141540), doxorubicin (NSC123127), gemcitabine (NSC613327), 5-fluorouracil (NSC19893), paclitaxel (NSC125973), vemurafenib (NSC761431), MSA-2 (NSC828583), SN-011 (NSC837082), adavosertib (NSC754352), prexasertib (NSC758257), carboplatin (NSC241240) and oxaliplatin (NSC266046), were obtained from the National Cancer Institute (NCI) Developmental Therapeutics Program Chemical Repository (21). The FDA-approved anticancer drug set is available from the Developmental Therapeutics Program at https://dtp.cancer.gov/organization/dscb/obtaining/. […] The stock solutions were prepared in dimethyl sulfoxide (DMSO, Sigma-Aldrich, St. Louis, MO, cat. D2650), except for the platinum compounds which were prepared in saline (Quality Biological, Gaithersburg, MD, cat. 114-055-101), at 800-fold the tested concentration and stored at -70 degrees C prior to their use. All drugs and investigational agents were tested over a range starting from a high concentration at or near the clinical Cmax and decreasing in half-log increments. If the clinical Cmax for an agent had not been determined, the highest concentration tested was 10 microM, except for SN-38, which was tested at a high concentration of 1 microM.
Cell Culture. All cells were maintained in an incubator at 37 degrees C and 5% CO2 with 95% humidity. The PDC lines were cultured according to standard operating procedures established by the NCI PDMR (https://pdmr.cancer.gov). Table 3 of the manuscript, lists the cell lines along with the number of the three cell types plated to form the mct-spheroids and media for tumor cell growth. After thawing, all PDC lines, except 997537-175-T-J1-PDC and 415267-285-R-J2-PDC, were cultured in Matrigel-coated flasks prepared with a working solution of 1X Ham's F-12 nutrient mix, without supplementation (Thermo Fisher Scientific, cat. 11765054), 100 U/mL penicillin-streptomycin (Thermo Fisher Scientific, cat. 15140122), and 2.5% Matrigel (Corning Inc., Corning, NY, cat. 354248) for the first three passages. The two PDC lines 997537-175-T-J1-PDC and 415267-285-R-J2-PDC were cultured on uncoated flasks. The 857933-349-R-J2-PDC line was cultured in 6C/Colon 1B media containing advanced DMEM/F-12 (Thermo Fisher Scientific, cat. 12634028), 10 mM HEPES (Thermo Fisher Scientific, cat. 15630080), 1X GlutaMAX supplement (Thermo Fisher Scientific, cat. 35050061), 0.1 mg/mL primocin (InvivoGen, San Diego, CA, cat. ant-pm-2), 10% defined fetal bovine serum, heat inactivated (HyClone Laboratories Inc., Logan, UT, cat. SH30070.03HI), 50% L-WRN conditioned media (ATCC, cat. CRL-3276), 1.25 mM N-Acetyl-L-cysteine (Sigma-Aldrich, cat. A9165), 10 mM nicotinamide (Sigma-Aldrich, cat. N0636), 1X B-27 supplement (Thermo Fisher Scientific, cat. 17504044), 1X N-2 supplement (Thermo Fisher Scientific, cat. […]
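Further: spheroids exposed to compounds for seven days.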
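Wherever viability, T/C is given: 100% = DMSO vehicle control viability.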

C#Cc1c(F)ccc2cc(O)cc(-c3ncc4c(N5CC6CCC(C5)N6)nc(OCC56CCCN5CC(F)C6)nc4c3F)c12 (stereo unspecified)
viability, T/C (compound 0.0316 µM): 64.6% and 97.7% and 80.6% | viability, T/C (compound 0.1 µM): 88.7% and 85.6% and 110% | viability, T/C (compound 0.316 µM): 112% and 102% and 114% | viability, T/C (compound 1 µM): 99.1% and 101% and 114% | viability, T/C (compound 3.16 µM): 84% and 93.9% and 105% | viability, T/C (compound 10 µM): 74.8% and 83.1% and 86.3% | IC50: > 10000 nM

C=CC(=O)N1CCN(c2nc(=O)n(-c3c(C)ccnc3C(C)C)c3nc(-c4c(O)cccc4F)c(F)cc23)C(C)C1 (stereo unspecified)
viability, T/C (compound 0.0316 µM): 90.8% and 111% and 101% | viability, T/C (compound 0.1 µM): 96% and 93.3% and 101% | viability, T/C (compound 0.316 µM): 82.7% and 111% and 107% | viability, T/C (compound 1 µM): 82.8% and 111% and 110% | viability, T/C (compound 3.16 µM): 94% and 105% and 101% | viability, T/C (compound 10 µM): 78.2% and 87% and 86.5% | IC50: > 10000 nM

C=CCn1c(=O)c2cnc(Nc3ccc(N4CCN(C)CC4)cc3)nc2n1-c1cccc(C(C)(C)O)n1
viability, T/C (compound 0.00316 µM): 107% (2×) and 111% | viability, T/C (compound 0.01 µM): 119% and 95.2% and 85.9% | viability, T/C (compound 0.0316 µM): 98% and 116% and 91.7% | viability, T/C (compound 0.1 µM): 103% and 95.6% and 93.7% | viability, T/C (compound 0.316 µM): 109% and 85.2% and 82.7% | viability, T/C (compound 1 µM): 81.5% and 87.5% and 68.1% | IC50: > 1000 nM

CC(=O)O[C@H]1C(=O)[C@@]2(C)[C@H]([C@H](OC(=O)c3ccccc3)[C@]3(O)C[C@H](OC(=O)[C@H](O)[C@@H](NC(=O)c4ccccc4)c4ccccc4)C(C)=C1C3(C)C)[C@]1(OC(C)=O)CO[C@@H]1C[C@@H]2O
viability, T/C (compound 0.00949 µM): 93.6% and 91% and 48.6% | viability, T/C (compound 0.03 µM): 40.4% and 58.8% and 17.8% | viability, T/C (compound 0.0949 µM): 40.3% and 41.6% and 17.4% | viability, T/C (compound 0.3 µM): 42% and 47.9% and 19% | viability, T/C (compound 0.949 µM): 42.7% and 50.8% and 21.5% | viability, T/C (compound 3 µM): 47.6% and 61% and 28.4%

CC(C)n1c(=O)n(C)c2cnc3cc(F)c(-c4ccc(OCCCN5CCCCC5)nc4)cc3c21
viability, T/C (compound 0.0316 µM): 103% and 107% and 118% | viability, T/C (compound 0.1 µM): 133% and 106% and 113% | viability, T/C (compound 0.316 µM): 104% and 103% and 109% | viability, T/C (compound 1 µM): 103% and 118% and 107% | viability, T/C (compound 3.16 µM): 104% and 114% and 103% | viability, T/C (compound 10 µM): 104% and 108% and 105% | IC50: > 10000 nM

CC1COCCN1c1cc(-c2ccnn2C)c2ccnc(-c3ccn[nH]3)c2n1 (stereo unspecified)
viability, T/C (compound 0.0316 µM): 93.1% and 105% and 77.6% | viability, T/C (compound 0.1 µM): 67.1% and 76.9% and 73.5% | viability, T/C (compound 0.316 µM): 55.3% and 44.6% and 61.7% | viability, T/C (compound 1 µM): 37.6% and 31.7% and 57.4% | viability, T/C (compound 3.16 µM): 35.6% and 27.5% and 46% | viability, T/C (compound 10 µM): 25.1% and 22.8% and 38.4% | IC50: 406 nM and 270 nM and 2090 nM
